Measurements reported in patent publication US20180162871A1, “FLUORESCENT PROBE FOR DETECTING CALPAIN ACTIVITY” (The University of Tokyo, priority 2015, published 2018).
Non-standard residues stand in square brackets, D forms with d. Residues, ends and D or L forms follow the SMILES beside them. Nle = CCCC[C@H](N)C(=O)O

Tests used:
[1] = system: calpain activity in HeLa cells; experiment: Live cell imaging of calpain activity in HeLa cells; assay type: cell-based; conditions: for visualization of calpain activity in HeLa cells (fluorescence image): 30 minutes with 10 KM of probe, confocal microscope
Description: The calpain activity in HeLa cells was visualized by the following procedure using Ac-LLY-HMRG.
(a) HeLa cells were incubated for one hour at 37° C. using FBS (BD Pharmingen stain buffer)-free DMEM (Dulbecco's modified Eagle's medium), and also incubated for 30 minutes by 10 KM of Ac-LLY-HMRG. Fluorescence images and transmission images were taken thereafter using a confocal microscope.
The calpain activity in HeLa cells was visualized by the following procedure using Ac-LM-HMRG.
(a) HeLa cells were incubated for one hour at 37° C. using FBS (BD Pharmingen stain buffer)-free DMEM (Dulbecco's modified Eagle's medium), (b) 1 KM ALLN (calpain selective inhibitor)-containing DMEM (FBS (−)), (c) 2 KM ALLN-containing DMEM (FBS (−)), and (d) 5 KM ALLN-containing DMEM (FBS (−)), and also incubated for 30 minutes by 10 KM of Ac-LM-HMRG. Fluorescence images and transmission images were taken thereafter using a confocal microscope. The results are shown in FIGS. 4a-4d (the left side of each drawing is the fluorescence image; the right side is the transmission image). The scale bar in the drawing is 50 μm.

[2] = system: calpain-2 from porcine kidney; experiment: In vitro enzyme assay using calpain (calpain 2); assay type: biochemical; conditions: probe 1 μM, 50 mM Tris buffer pH 7.4, 500 μM CaCl2, 25° C., excitation 495 nm, fluorescence 524 nm
Description: (§1) A calpain enzyme addition assay was conducted in Tris buffer under the following conditions using a probe synthesized and designed by the above method. As a result, the absorption and fluorescence intensity of Ac-LLY-HMRG increased about two-fold due to the enzymatic reaction, and it was confirmed to function as a calpain probe. The results are shown in FIG. 1a (using calpain 1) and FIG. 1b (using calpain 2).
(§2) A quantity of 3 μL of a DMSO solution (1 mM) of the probe was dissolved in 3 mL of 50 mM Tris buffer (pH 7.4) (containing 5 μM of CaCl2 for calpain 1 and 500 μM of CaCl2 for calpain 2) (final probe concentration: 1 μM). […] The excitation wavelength was 495 nm, and the fluorescence wavelength was 524 nm. […]
(§3) A calpain enzyme addition assay was conducted in Tris buffer using a probe synthesized and designed by the above method. As a result, the absorption and fluorescence intensity of Ac-LM-HMRG increased about four-fold due to the enzymatic reaction with calpain 2, and it was confirmed to function as a calpain probe. […]
(§4) A quantity of 3 μL of a DMSO solution (1 mM) of the probe was dissolved in 3 mL of 50 mM Tris buffer (pH 7.4) (containing 5 μM of CaCl2 for calpain 1 and 500 μM of CaCl2 for calpain 2) (final probe concentration: 1 μM). […] The excitation wavelength was 495 nm, and the fluorescence wavelength was 524 nm.

mouse NMDA injury model = experiment: Flat-mounted retinas with mouse NMDA injury model; assay type: in vivo, BL6/J mice; conditions: Ac-LM-HMRG 0.5 mM, 1 μL to the eye
Description: A study by mouse NMDA injury model was conducted with flat-mounted retinas. […] After one week, the mice were anesthetized by Nembutal, and 1 μL of 30 mM NMDA (PBS solution) or 1 μL of PBS was administered to the vitreous body in the eye. Two weeks later, the mice were again anesthetized by ketamine-xylazine, and Ac-LM-HMRG (0.5 mM, 1 μL, PBS solution) was administered to the eye. One hour after Ac-LM-HMRG administration, Sytox (registered trademark) Orange (for staining cells that have undergone cell death, […], 1 μL, PBS solution) (manufactured by Invitrogen) was administered to the vitreous body. Ten minutes later, the eyeball was removed, fixed for two hours by 4% paraformaldehyde (PFA), and flat-mounted retinas were prepared.

[3] = Measurement of the optical properties; assay type: physicochemical; conditions: 0.2 M sodium phosphate buffer of pH 2
Description: The optochemical properties of Ac-LLY-HMRG and Ac-LM-HMRG were measured in 0.2 M sodium phosphate buffer of pH 2.

rat NMDA injury model = experiment: Rat NMDA injury model, fundus photography; assay type: in vivo, SD rats; conditions: Ac-LM-HMRG 2 mM, 2 μL to the eye
Description: SD rats were placed under general anesthesia using Nembutal. N-methyl-D-aspartic acid (NMDA) (10 mM, 2 μL) or PBS was administered to the eye. The animals were again placed under anesthesia by ketamine-xylazine mixture four hours later, and Ac-LM-HMRG (2 mM, 2 μL) was administered to the eye. The fundus was photographed by an F10 (Nidec confocal biomicroscope).
In FIGS. 5 and 6, locations indicated by an arrow show nerve cells stained by HMRG.

[4] = target: T1, calpain-1 from human erythrocytes (Homo sapiens, UniProt P07384); experiment: In vitro enzyme assay using calpain (calpain 1); assay type: biochemical; conditions: probe 1 μM, 50 mM Tris buffer pH 7.4, 5 μM CaCl2, 25° C., excitation 495 nm, fluorescence 524 nm
T1 construct: calpain-1 from human erythrocytes; purchased 208713; host or cells: purified from human erythrocytes
T1 sequence (P07384 1-714): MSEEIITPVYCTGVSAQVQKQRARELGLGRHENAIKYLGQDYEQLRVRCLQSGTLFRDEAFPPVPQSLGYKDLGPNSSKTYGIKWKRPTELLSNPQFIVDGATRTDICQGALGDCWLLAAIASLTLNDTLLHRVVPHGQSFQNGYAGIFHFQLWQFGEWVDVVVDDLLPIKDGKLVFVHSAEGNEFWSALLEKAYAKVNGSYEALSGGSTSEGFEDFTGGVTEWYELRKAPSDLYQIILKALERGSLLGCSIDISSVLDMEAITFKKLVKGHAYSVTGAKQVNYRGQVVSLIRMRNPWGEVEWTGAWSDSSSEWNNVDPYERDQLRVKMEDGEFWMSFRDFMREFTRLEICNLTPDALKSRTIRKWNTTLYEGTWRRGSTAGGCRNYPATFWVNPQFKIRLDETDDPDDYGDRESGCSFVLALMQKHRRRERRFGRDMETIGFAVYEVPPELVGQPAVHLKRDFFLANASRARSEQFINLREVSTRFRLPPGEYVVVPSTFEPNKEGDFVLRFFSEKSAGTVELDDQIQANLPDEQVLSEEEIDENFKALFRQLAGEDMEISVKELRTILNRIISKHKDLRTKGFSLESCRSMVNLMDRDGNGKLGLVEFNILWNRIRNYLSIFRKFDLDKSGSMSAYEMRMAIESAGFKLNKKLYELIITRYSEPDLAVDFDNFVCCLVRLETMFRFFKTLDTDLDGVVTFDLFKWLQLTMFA
T1 sequence (P04632 1-268 partner): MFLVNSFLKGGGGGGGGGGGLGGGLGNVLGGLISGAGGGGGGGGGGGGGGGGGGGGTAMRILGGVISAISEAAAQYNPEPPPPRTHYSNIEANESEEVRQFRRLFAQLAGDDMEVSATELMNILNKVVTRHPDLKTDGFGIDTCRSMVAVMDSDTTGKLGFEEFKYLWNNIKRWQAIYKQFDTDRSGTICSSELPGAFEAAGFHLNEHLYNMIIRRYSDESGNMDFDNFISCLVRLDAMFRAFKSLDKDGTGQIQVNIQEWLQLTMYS
Description: as §1, §2, §3, §4

increase of absorption and fluorescence intensity due to the enzymatic reaction [2] | Absmax [3] | Emmax [3] | Φn [3] | increase of absorption and fluorescence intensity due to the enzymatic reaction [4] | Compound | visualization of calpain activity in HeLa cells (fluorescence image) [1] | staining of flat-mounted retina, NMDA group (mouse NMDA injury model; NMDA group mice) | staining of flat-mounted retina, PBS group (mouse NMDA injury model; PBS group mice) | staining of nerve cells in fundus photograph, NMDA group (rat NMDA injury model; NMDA-administered rats, 30, 60, and 90 minutes after administration) | staining of nerve cells in fundus photograph, PBS group (rat NMDA injury model; PBS-administered rats, after 30, 60 and 90 minutes) | effect of inhibitor on fluorescence intensity within the cells ([1]; for one hour at 37° C., then 10 KM of Ac-LM-HMRG for 30 minutes)
about four-fold | 470 nm | 529 nm | 0.32 | – | CC(=O)N[C@@H](CC(C)C)C(=O)N[C@@H](CC(C)C)C(=O)N[C@@H](Cc1ccc(O)cc1)C(=O)Nc1ccc2c(c1)Oc1cc(N)ccc1C21OCc2ccccc21 (stereo partly shown) [Ac-LM-HMRG] | made it possible to monitor the calpain activity inside HeLa cells | calpain activity was detected | not found | nerve cells were clearly stained | nerve cells were only very slightly stained | –
– | – | – | – | – | CCCC[C@@H](C=O)NC(=O)[C@H](CC(C)C)NC(=O)[C@H](CC(C)C)NC(C)=O [ALLN, reference compound] (Ac-Leu-Leu-[Nle]-aldehyde) | – | – | – | – | – | decreased the fluorescence intensity within the cells
about two-fold | 470 nm | 526 nm | 0.19 | about two-fold | CSCC[C@H](NC(=O)[C@H](CC(C)C)NC(C)=O)C(=O)Nc1ccc2c(c1)Oc1cc(N)ccc1C21OCc2ccccc21 (stereo partly shown) [Ac-LLY-HMRG] | made it possible to monitor the calpain activity inside HeLa cells | – | – | – | – | –
– | 501 nm | 524 nm | 0.81 | – | N=c1ccc2c(-c3ccccc3CO)c3ccc(N)cc3oc-2c1 [HMRG, reference compound] | – | – | – | – | – | –
